PMC10451377, “Rationally Designed Pyrimidine Compounds: Promising Novel Antibiotics for the Treatment of Staphylococcus aureus-Associated Bovine Mastitis” (Antibiotics, 2023)
“Also recorded” adds a separate entry of the source.

How the values were obtained:
[1] = Initial safety assessment in cows; type: in vivo; settings: single intramammary infusion of 100, 250 or 500 mg
Procedure: (§1) The innocuity of PC206 was evaluated in cows, as previously described for other test substances. Following morning milking, each of the four mammary gland quarters […] was infused with various doses of PC206 (100, 250, 500 mg) or saline as a negative control. […] Cows were milked using an individual quarter-milking unit in order to measure individual quarter-milk production. PC206 concentration in milk was also measured; milk samples were diluted with an equal volume of isopropanol and washed 3 times with hexane. PC206 was extracted using ethyl acetate, filtered on Na2SO4, and evaporated. The dried samples were diluted 80:20 in ACN:H2O containing an internal standard. The content of PC206 was determined using single-ion monitoring (SIMS) on UPLC-MS.

[2] = system: guanine riboswitch-lacZ fusion construct (xpt-lacZ); assay: Riboswitch regulation assay (lacZ-gene reporter); type: cell-based, B. subtilis; settings: 64 µg/mL
From the text: The novel pyrimidine compounds, especially PC206, display specificity and potency against some staphylococci but not the other bacterial genus (Table 1 and Table 2). Because they are structurally derived from PC1 and PC2, these novel antibiotic candidates are expected to have the same mode of action. […] To verify this hypothesis, a strain of B. subtilis with a guanine riboswitch-lacZ fusion construct (named xpt-lacZ) integrated in its chromosome was exposed to these new antimicrobials. […] Therefore, it is an adequate reporter species. The metabolization of substrate ONPG into colored ONP was normalized by the bacterial suspension absorbance at 600 nm (Miller units) and relativized to the untreated condition.
β-galactosidase gene expression in the presence of the new pyrimidine analogs was studied, using an xpt-lacZ transcriptional fusion construct integrated in the genome of B. subtilis as previously described. Briefly, cultures were grown for 5 h at 35 °C in CAMHB, from an initial optical density of 0.05 at 600 nm (OD600), and then diluted 1:20 and in the presence of different concentrations of the compounds tested. Cultures were centrifuged for 10 min at 13,100 rpm, the supernatant was discarded, and pellets were suspended in a Z-buffer (NaH2PO4 40 mM, Na2HPO4 60 mM, MgSO4 1 mM, KCl 10 mM). Cultures OD600 were measured, and bacteria were then lysed with lysozyme (1 mg/mL) and β-mercaptoethanol 50 mM for 30 min. Lysates were centrifuged for 10 min at 13,100 rpm, and supernatants were incubated for 5 min at 30 °C with the substrate orthonitrophenyl-β-galactoside (ONPG; Sigma Aldrich). Reactions were stopped with Na2CO3 1M, supernatants OD420 were measured, and Miller units were calculated. A decrease in β-galactosidase activity indicated binding of the test compound to the riboswitch. Guanine and oxacillin were used as […] controls, respectively. The formula to measure Miller units is as follows: Millerunits=1000×OD420/t·v·OD600
Here, t represents the time of incubation with ONPG, and v represents the volume of the reaction.

[3] = system: S. aureus bovine strain 2117 embedded in preformed biofilm; assay: Biofilm-eradication test (MBEC assay); type: cell-based, Staphylococcus aureus; settings: 24 h exposure
Procedure: The viability of bacteria in preformed biofilms treated with PC206 was evaluated using the MBEC assay™ system (formerly the Calgary Biofilm Device). The device consists of a plastic lid with 96 pegs and a 96-well plate. […] Plates were incubated at 35 °C for 24 h with agitation (120 rpm). […] The pegs were washed three times with PBS and the biofilm was sonicated for 10 min, and then transferred into a new 96-well base plate. The 96-well plate was centrifuged for 5 min at 180 g to recover the detached bacteria.

[4] = system: S. aureus Newbould (ATCC 29740); assay: Murine mastitis model; settings: two intramammary doses of 500 µg
[5] = system: S. aureus Newbould, S. aureus CMRSA-10, S. epidermidis ATCC 12228; assay: Kill kinetics; type: cell-based, staphylococci
Procedure: Time-kill kinetics studies were performed to define the bactericidal effect of PC206. S. aureus Newbould, CMRSA-10, or S. epidermidis ATCC 12228 were inoculated at a density of approximately 5 × 10^5 CFU/mL in CAMHB in the absence or presence of PC206 and were incubated with agitation (225 rpm) for 24 h at 35 °C. Right before inoculation and 0.5, 1, 2, 4, 8 and 24 h thereafter, bacterial cultures were sampled, serially diluted, and plated on tryptic soya agar (TSA) plates that were incubated at 35 °C for 24 h to determine viable counts with a detection limit of 2 log10 CFU/mL.

LDH release assay = type: cell-based; settings: bovine, MAC-T cells
[6] = system: Escherichia coli ATCC 35695; assay: Broth microdilution MIC; settings: ATCC35695, read-out: Broth Microdilution MIC
[7] = Recovery of PC206 from quarter milk after intramammary infusion; type: in vivo; settings: cows
Procedure: as §1

SMILES: CCCCCCNc1cc(N)nc(N)n1 [PC206]
- Body temperature [1]: around 38 °C
- Redness or swelling of quarters at milking [1]: Neither redness nor swelling was observed
- Somatic cell counts and quarter-milk production ([1]; 69 h): remained unaffected; also recorded: did not impact somatic cells count
- Miller units remaining, relative to the untreated condition [2]: 35%
- Reduction in CFU/peg compared to the untreated biofilm ([3]; 32 µg/mL): 1.28 log10
- Reduction in CFU/peg compared to the untreated biofilm ([3]; 128 µg/mL): 2.40 log10
- Reduction in CFU/peg compared to the untreated biofilm ([3]; 512 µg/mL): 5.43 log10
- Tolerability in mice and mammary gland tissues [4]: No inflammation, damage, nor adverse effects were observed
- Difference in median bacterial counts versus untreated mice ([4]; 1 and 4 h after infection, glands harvested 14 h post-infection): 1.24 log10 CFU/g of gland
- Reduction of bacterial viable counts at 24 h compared to the initial inoculum ([5]; 4× MIC): 0.5–1.5 log10 CFU/mL
- Qualification from kill kinetics ([5]; up to 4× MIC, 24 h): bacteriostatic agent
- CC50 at 24 h (LDH release assay; 24 h): > 600 µM
- CC50 at 24 h (LDH release assay; converted from μM): > 125 µg/mL
- MIC [6]: > 128 µg/mL
- Time the concentration in quarter milk remained above the MIC (8 µg/mL) ([7]; single intramammary infusion of 100 mg): over 2 h
- Time the concentration in quarter milk remained above the MIC (8 µg/mL) ([7]; single intramammary infusion of 250 mg): > 4 h
- Time the concentration in quarter milk remained above the MIC (8 µg/mL) ([7]; single intramammary infusion of 500 mg): about 8 h
